Consider twelve compounds from PMC10592443 (Cell chemical biology, 2023).

The target in one assay is T1, recombinant PP5-His6 (Homo sapiens, UniProt P53041).
T1 sequence (P53041 1-499): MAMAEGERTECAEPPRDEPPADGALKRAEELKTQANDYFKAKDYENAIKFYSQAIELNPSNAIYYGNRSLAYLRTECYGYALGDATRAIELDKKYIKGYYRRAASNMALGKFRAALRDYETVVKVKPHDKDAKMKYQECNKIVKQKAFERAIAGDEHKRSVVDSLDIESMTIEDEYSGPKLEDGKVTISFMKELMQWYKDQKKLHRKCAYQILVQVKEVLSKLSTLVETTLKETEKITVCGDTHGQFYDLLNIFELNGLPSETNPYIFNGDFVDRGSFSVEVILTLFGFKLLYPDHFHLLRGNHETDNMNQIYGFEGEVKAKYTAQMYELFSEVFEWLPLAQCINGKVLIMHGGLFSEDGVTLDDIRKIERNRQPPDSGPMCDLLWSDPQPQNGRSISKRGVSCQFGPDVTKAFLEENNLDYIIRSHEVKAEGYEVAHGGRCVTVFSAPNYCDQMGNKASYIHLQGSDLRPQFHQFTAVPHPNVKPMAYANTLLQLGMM
Briefly: PP5 phosphatase activity and inhibition assay. Format: biochemical. The following applies: phospho-S211-GR peptide substrate.

Assay [1] deals with 786-O cells. Kind of assay: Cell viability / proliferation. It counts as cell-based, Human. The conditions noted are these: varying doses, 48hrs.
The subject of assay [2] is 786-O cells. Briefly: Induction of apoptosis by immunoblotting of apoptotic markers. Format: cell-based, Human. (In western blotting, separated proteins are transferred to a membrane and probed.)
Another assay has as its system VHL-null ccRCC cells. Briefly: Propidium iodide staining, cell death by flow cytometry. Format: cell-based, Human. The following applies: 30 or 40μM, A498 and 786-O versus Caki-1 and Caki-2; dose dependent. (In flow cytometry, cells or beads pass a laser one at a time.)
In assay [3] the test system is 786-O cells. Briefly: Phosphorylation of S194-FADD by western blot. The following applies: indicated amounts, 24hrs. Format: cell-based, Human.
The test system of the next assay is A498 cells. Kind of assay: Phosphorylation of S194-FADD by western blot. It counts as cell-based, Human. The following applies: indicated amounts, 24hrs.
For assay [4], the system named is VHL-null ccRCC cell lines. The conditions noted are these: ref [2]; cited from earlier work.
The next assay has as its system PP5. The following applies: ref [52]-[54]; cited from earlier work.
The next assay deals with PP1. The conditions noted are these: ref [52]-[54]; cited from earlier work.
A further assay relates to HEK293 cells. Briefly: Hsp90 inhibition time course, protein levels by immunoblot. It counts as cell-based, Human. The conditions noted are these: 2μM.
Another assay concerns the target T2, PP5-FLAG (Homo sapiens, UniProt P53041).
T2 sequence (P53041 1-499): T1 sequence (P53041 1-499)
Briefly: Biotin-P5 and biotin-P13 streptavidin pulldown from HEK293 lysate. The following applies: for binding to PP5-FLAG (co-pulldown): HEK293 lysate, 0.01-10μM biotinylated compound. Format: binding.

The test system of another assay is PP2A. Briefly: Biotinylated compound pulldown from 786-O lysate, co-pulldown of PP2A. The conditions noted are these: 1μM. Format: binding, Human.
For assay [5], the target named is T3, PP5-FLAG active site point mutants (Homo sapiens, UniProt P53041, R400A).
T3 sequence (P53041 2-499 R400A): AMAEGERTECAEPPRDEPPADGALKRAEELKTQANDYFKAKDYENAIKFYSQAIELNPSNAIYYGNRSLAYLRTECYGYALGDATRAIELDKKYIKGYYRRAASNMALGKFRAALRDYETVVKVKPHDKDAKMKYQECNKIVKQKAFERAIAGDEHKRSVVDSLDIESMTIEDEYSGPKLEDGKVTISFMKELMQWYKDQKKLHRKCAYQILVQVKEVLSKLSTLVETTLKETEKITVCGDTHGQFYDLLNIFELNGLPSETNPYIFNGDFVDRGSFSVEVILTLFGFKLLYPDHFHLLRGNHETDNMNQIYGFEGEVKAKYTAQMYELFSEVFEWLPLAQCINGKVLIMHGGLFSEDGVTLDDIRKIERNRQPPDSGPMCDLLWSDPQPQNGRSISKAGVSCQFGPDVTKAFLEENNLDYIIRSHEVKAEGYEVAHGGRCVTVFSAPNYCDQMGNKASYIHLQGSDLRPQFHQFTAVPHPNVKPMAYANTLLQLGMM
Briefly: Biotin-P13 streptavidin pulldown of PP5 active site point mutants. Format: binding. The following applies: R400A mutant.

For assay [6], the system named is PP5-FLAG active site point mutants. Described as above. It counts as binding, Human.

Residues, ends and D or L forms follow the SMILES beside them. *: point of attachment. Cbz = O=C(OCc1ccccc1)*; CH2F = FC*

Regarding `COC(=O)c1cccc(NS(=O)(=O)c2c(C)noc2C)c1` [Compound P5, Methyl m-(3,5-dimethyl-4-isoxazolylsulfonylamino)benzoate], the “mode of PP5 inhibition (enzyme kinetics, Lineweaver-Burk plot)” value on recombinant PP5-His6 was “competitive inhibitors”. For the same compound, the “proliferation of 786-O cells (MTT)” value in the assay with 786-O cells [1] is reported as “significantly inhibited the proliferation”. Besides, in the assay on 786-O cells [2] (10μM, 24hrs), the “cleavage of apoptotic markers (immunoblot)” value is “cleavage of the apoptotic markers caspase 3 and 8 and PARP”.
For the compound `Cc1ccc(NS(=O)(=O)c2c(C)noc2C)cc1C` [Compound P13, (3,5-Dimethyl-4-isoxazolylsulfonyl)(3,4-xylyl)amine], the “mode of PP5 inhibition (enzyme kinetics, Lineweaver-Burk plot)” value on recombinant PP5-His6 is given as “competitive inhibitors”. Also, the “proliferation of 786-O cells (MTT)” value in the assay on 786-O cells [1] is reported as “significantly inhibited the proliferation”. Further, the “cleavage of apoptotic markers (immunoblot)” value with 786-O cells [2] (10μM, 24hrs) was “cleavage of the apoptotic markers caspase 3 and 8 and PARP”.
For the compound `Cc1noc(C)c1S(=O)(=O)Nc1ccc(Cc2ccccc2)cc1` [Compound P053, (3,5-Dimethyl-4-isoxazolylsulfonyl)(p-benzylphenyl)amine], in the assay on 786-O cells [2] (10μM, 24hrs), the “cleavage of caspase 3 and PARP” value is “increased cleavage of the executioner caspase 3”; the “cleavage of caspase 8 and caspase 9 (extrinsic versus intrinsic apoptosis)” value was “cleavage of caspase 8 but not caspase 9”; the “induction of apoptosis (cleaved PARP, cleaved caspase 8)” value is recorded as “ability to induce apoptosis”. For the same compound, the “cell death (PI stained cells)” value with VHL-null ccRCC cells is “selectively caused cell death”.
`CCCCN(c1ccc(Oc2ccccc2)cc1)S(=O)(=O)c1c(C)noc1C` [Compound P058, N-Butyl(3,5-dimethyl-4-isoxazolylsulfonyl)(p-phenoxyphenyl)amine]: the “induction of apoptosis (cleaved PARP, cleaved caspase 8)” value in the assay on 786-O cells [2] (10μM, 24hrs) is recorded as “ability to induce apoptosis”.
Same read-out and setting: the entry for `Cc1noc(C)c1S(=O)(=O)N(CCCCl)c1ccc(Oc2ccccc2)cc1` [Compound P059, (3-Chloropropyl)(3,5-dimethyl-4-isoxazolylsulfonyl)(p-phenoxyphenyl)amine] is “ability to induce apoptosis”; for `Cc1noc(C)c1S(=O)(=O)N(CCCC#N)c1ccc(Oc2ccccc2)cc1` [Compound P075, 4-[(3,5-Dimethyl-4-isoxazolylsulfonyl)(p-phenoxyphenyl)amino]butyronitrile] it is “ability to induce apoptosis”.
Consider `COc1cc(OC)c(C=C2C(O)=Nc3ccccc32)c(OC)c1` [IC261], for which the “induction of extrinsic apoptosis (apoptotic markers)” value in the assay with 786-O cells [2] (indicated amounts, 16hrs) is recorded as “induced extrinsic apoptosis in a dose-dependent manner”. Besides, the S194-FADD phosphorylation entry with 786-O cells [3] and in the assay with A498 cells was “increase in S194-FADD phosphorylation” each time. In assay [4], the PP5 activity result is reported as “decreased PP5 activity”. The apoptosis result in [4] is listed as “induced apoptosis”.
Consider `CN1CCN(C(=O)C2C(C(=O)O)[C@H]3CC[C@@H]2O3)CC1` (some centres unmarked) [LB-100], for which, in the assay on PP5, the “inhibition of PP5” value was “inhibit PP5 and PP1”. For the same compound, the “inhibition of PP1” value in the assay on PP1 is “inhibit PP5 and PP1”.
For `CC1(C)CC(=O)c2c(C(F)(F)F)nn(-c3ccc(C(N)=O)c(N[C@H]4CC[C@H](O)CC4)c3)c2C1` [SNX-2112], the RIPK1 protein levels result with HEK293 cells (16 hr) is “decreased RIPK1 protein levels”. In the assay on HEK293 cells (throughout the time course), the FADD protein levels result is “did not observe a decrease in FADD levels”. The “Hsp90 clients Tsc2, Akt and phos-Ser473-Akt protein levels” value in the assay with HEK293 cells (time course) was “destabilized and degraded”.
Take `Cc1noc(C)c1S(=O)(=O)Nc1cccc(C(=O)N2CCN(C(=O)CCC[C@@H]3SC[C@@H]4NC(=O)N[C@@H]43)CC2)c1` [biotin-P5, N-[3-(4-(4-[(3aS,4S,6aR)-2-Oxo-hexahydro-1H-thieno[3,4-d]imidazol-4-yl]butanoyl)piperazine-1-carbonyl)phenyl]-3,5-dimethyl-1,2-oxazole-4-sulfonamide]: the “binding to PP5-FLAG (co-pulldown)” value on PP5-FLAG is recorded as “binds”. Besides, the “binding to PP2A (co-pulldown)” value in the assay with PP2A is reported as “did not bind to PP2A”.
As to `Cc1ccc(N(CCCNC(=O)CCC[C@@H]2SC[C@@H]3NC(=O)N[C@@H]32)S(=O)(=O)c2c(C)noc2C)cc1C` [biotin-P13, 4-[(3aS,4S,6aR)-2-Oxo-hexahydro-1H-thieno[3,4-d]imidazol-4-yl]-N-(3-[N-(3,4-dimethylphenyl)3,5-dimethyl-1,2-oxazole-4-sulfonamido]propyl}butanamide], the “binding to PP5-FLAG relative to biotin-P5” value at PP5-FLAG (10μM) was “bound more”. Further, on PP5-FLAG, the “binding to PP5-FLAG (co-pulldown)” value is “binds”. Also, the “binding of PP5 mutant to biotinylated compound compared to WT PP5” value in [5] is “reduced binding”. Besides, the “binding of PP5 mutants to biotinylated compound” value in assay [6] (H304Q, M309C and W386F mutants) is listed as “unable to bind”. Besides, the “binding of PP5 mutants to biotinylated compound compared to WT PP5” value in assay [6] (R275A and Y451F mutants) is reported as “increased binding”. For the same compound, the “binding to PP2A (co-pulldown)” value with PP2A is on record as “did not bind to PP2A”.
Take `COC(=O)C[C@H](NC(=O)[C@H](C)NC(=O)[C@@H](NC(=O)OCc1ccccc1)C(C)C)C(=O)CF` [z-VAD-fmk, reference compound] (Cbz-Val-Ala-Asp(OMe)-CH2F): in the assay with 786-O cells [2] (10μM for 1hr, then IC261 for 16hrs), the “effect on IC261-induced extrinsic apoptosis” value was “reversed this effect”.
